Here are results for 59 compounds from PMC11672294, “The Antipsychotic Drug Aripiprazole Suppresses Colorectal Cancer by Targeting LAMP2a to Induce RNH1/miR‐99a/mTOR‐Mediated Autophagy and Apoptosis” (Advanced Science, 2024).

Where a name gives a salt, the structure may show the parent alone. Residues, ends and D or L forms follow the SMILES beside them.

In the first data set the test system is HT29. The conditions noted are these: 72 h, relative to DMSO, 10 µM, Relative cell viability (%). From the text:
To investigate the key signaling pathways and biological processes involved in CRC progression, we analyzed the National Center for Biotechnology Information Gene Expression Omnibus (GEO) dataset GSE115313, which included 42 CRC and paired normal tissues (Figure 1A). […] Next, we performed an Annexin V‐fluorescein isothiocyanate (FITC)/propidium iodide (PI) staining assay to determine the effect of aripiprazole on apoptosis in CRC cells. […] A) Principal component analysis of GEO dataset (GSE115313), which includes 42 CRC and paired normal tissues. B) Gene Ontology pathway analysis of the DEPs between CRC and paired normal tissues. […] D) Schematic diagram for identifying anticancer drugs amongst an US Food and Drug Administration‐approved small‐molecule library (616 compounds) using WST‐1 assay. E) HT29 cells were treated with the 616 drugs (10 µM) individually or with dimethyl sulfoxide for 72 h, followed by WST‐1 assay. […] J) Mice bearing HT29‐derived tumor xenografts were intragastrically administered with aripiprazole (10 or 20 mg kg^−1) once every 2 d, n = 6 mice/group. […] Bars, SD; ^* p < 0.05; ^** p < 0.01; ^*** p < 0.001; ns, no significant difference. The WST‐1 Cell Proliferation and Cytotoxicity Assay Kit (Beyotime Biotechnology, Shanghai, China) was used to measure cell viability, as described previously.^[ [10] ^] CRC cells were seeded into 96‐well plates and treated with different drug concentrations. Following that, WST‐1 was added to the plate and incubated with the cells for 2 h, at 37 °C. Absorbance at the wavelength of 450 nm was measured using an automated microplate spectrophotometer (BioTek Instruments, Winooski, VT, USA).
In the case of `CC(C)NCC(O)COc1ccc(CCOCC2CC2)cc1` (centres unmarked) [Betaxolol], the “Relative cell viability (%)” value came to 109.6%.

As for `Cc1c(-c2ccc(O)cc2)n(Cc2ccc(OCCN3CCCCCC3)cc2)c2ccc(O)cc12` [Bazedoxifene HCl], the “Relative cell viability (%)” value stood at 91.36%.

For the compound `CN1CCN(c2ccc3nc(-c4c(N)c5c(F)cccc5[nH]c4=O)[nH]c3c2)CC1` [Dovitinib (TKI-258) Dilactic Acid], the “Relative cell viability (%)” value stood at 12.62%.

The data set is the same for the next values; noted with them: 72 h, relative to DMSO; 10 µM.
With `Fc1ccc(C(c2ccc(F)cc2)N2CCN(C/C=C/c3ccccc3)CC2)cc1` [Flunarizine 2HCl], the “Relative cell viability (%)” value was 73.29%.

With `Cc1nnc(C(=O)NC(C)(C)c2nc(C(=O)NCc3ccc(F)cc3)c(O)c(=O)n2C)o1` [Raltegravir (MK-0518)], the “Relative cell viability (%)” value turned out to be 181.8%.

Consider `CC[C@H](C)C(=O)O[C@H]1C[C@@H](C)C=C2C=C[C@H](C)[C@H](CC[C@@H]3C[C@@H](O)CC(=O)O3)[C@H]21` [Lovastatin], for which the “Relative cell viability (%)” value is recorded as 169.7%.

On to `NC(=O)c1cn(Cc2c(F)cccc2F)nn1` [Rufinamide], for which the “Relative cell viability (%)” value is recorded as 91.43%.

Turning to `Nc1c(Br)cc(Br)cc1CN[C@H]1CC[C@H](O)CC1` [Ambroxol HCl], the “Relative cell viability (%)” value is 67.96%.

With `CC(=O)Oc1cc2c(s1)CCN(C(C(=O)C1CC1)c1ccccc1F)C2` (centres unmarked) [Prasugrel], the “Relative cell viability (%)” value amounted to 68.07%.

As to `Clc1ccc2c(c1)C(N1CCNCC1)=Nc1ccccc1O2` [Amoxapine], the “Relative cell viability (%)” value was 73.94%.

As to `COc1cc2nc(N3CCN(C(=O)C4COc5ccccc5O4)CC3)nc(N)c2cc1OC` (centres unmarked) [Doxazosin Mesylate], the “Relative cell viability (%)” value is listed as 63.4%.

As for `CNC[C@H](O)[C@@H](O)[C@H](O)[C@H](O)CO` [Meglumine], the “Relative cell viability (%)” value was determined as 172.9%.

With `CCc1cccc2c3c([nH]c12)C(CC)(CC(=O)O)OCC3` (centres unmarked) [Etodolac], the “Relative cell viability (%)” value came out at 86.76%.

On to `O=C(CCCN1CCC(O)(c2ccc(Cl)cc2)CC1)c1ccc(F)cc1` [Haloperidol], for which the “Relative cell viability (%)” value came out at 29.34%.

Turning to `CCN(Cc1ccncc1)C(=O)C(CO)c1ccccc1` (centres unmarked) [Tropicamide], the “Relative cell viability (%)” value is listed as 144.5%.

Turning to `CN1CCC(COc2cnc(-c3cccc(Cn4nc(-c5cccc(C#N)c5)ccc4=O)c3)nc2)CC1` [Tepotinib (EMD 1214063)], the “Relative cell viability (%)” value is 11.11%.

Turning to `Cc1ccc(-n2nc(C(C)(C)C)cc2NC(=O)NCc2cc(F)ccc2Oc2ccc3c(cnn3CCO)c2)cc1` [Pexmetinib (ARRY-614)], the “Relative cell viability (%)” value stood at 47.01%.

Regarding `CC1=C(C(=O)OC(C)C)C(c2cccc([N+](=O)[O-])c2)C(C(=O)OC2CN(C(c3ccccc3)c3ccccc3)C2)=C(N)N1` (centres unmarked) [Azelnidipine], the “Relative cell viability (%)” value was 73.79%.

As to `OCCOc1ccc(/C(=C(/CCCl)c2ccccc2)c2ccccc2)cc1` [Ospemifene], the “Relative cell viability (%)” value stood at 80.303%.

With `CCC1=C(C)CN(C(=O)NCCc2ccc(S(=O)(=O)NC(=O)N[C@H]3CC[C@H](C)CC3)cc2)C1=O` [Glimepiride], the “Relative cell viability (%)” value came to 64.95%.

As for `CNC(=O)c1ccc(Nc2ncc(C(F)(F)F)c(NCc3nccnc3N(C)S(C)(=O)=O)n2)cc1` [Defactinib (VS-6063, PF-04554878)], the “Relative cell viability (%)” value is recorded as 67.52%.

For the compound `NC(=O)c1cccnc1` [Nicotinamide (Vitamin B3)], the “Relative cell viability (%)” value was determined as 113.7%.

With `CC(S)C(=O)NCC(=O)O` (centres unmarked) [Tiopronin], the “Relative cell viability (%)” value worked out at 149.2%.

Consider `COc1cc(/C=C/C(=O)N2CCN(CC(=O)N3CCCC3)CC2)cc(OC)c1OC` [Cinepazide maleate], for which the “Relative cell viability (%)” value was 86.89%.

In the case of `COc1cc(OC)c(/C=C/S(=O)(=O)Cc2ccc(OC)c(NCC(=O)O)c2)c(OC)c1` [Rigosertib (ON-01910)], the “Relative cell viability (%)” value was found to be 4.206%.

Take `CCc1nc(N)nc(N)c1-c1ccc(Cl)cc1` [Pyrimethamine]: the “Relative cell viability (%)” value is recorded as 41.03%.

In the case of `C=CC(=O)Nc1cccc(Nc2nc(Nc3ccc(N4CCN(C(C)=O)CC4)cc3OC)ncc2C(F)(F)F)c1` [CO-1686 (AVL-301)], the “Relative cell viability (%)” value came to 16.24%.

Take `Cc1c(-c2cnccn2)ssc1=S` [Oltipraz]: the “Relative cell viability (%)” value is recorded as 84.19%.

For the compound `COC(=O)[C@H](Cc1ccccc1)NC(=O)[C@@H](N)CC(=O)O` [Aspartame] (H-Asp-Phe-OMe), the “Relative cell viability (%)” value was found to be 199.9%.

For `NC12CC3CC(CC(C3)C1)C2` [Amantadine HCl], the “Relative cell viability (%)” value stood at 105.5%.

On to `CCCCCCCCCCCCCCCC[N+](C)(C)C` [Cetrimonium Bromide (CTAB)], for which the “Relative cell viability (%)” value is reported as 18.48%.

As to `CCCCCCNC(=O)n1cc(F)c(=O)[nH]c1=O` [Carmofur], the “Relative cell viability (%)” value is 24.45%.

Regarding `N#CC1(c2ccc(NC(=O)c3cccnc3NCc3ccncc3)cc2)CCCC1` [Apatinib], the “Relative cell viability (%)” value stood at 110.8%.

As to `S=C(NCc1ccc2c(c1)OCO2)N1CCN(c2ncnc3c2oc2ccccc23)CC1` [Amuvatinib (MP-470)], the “Relative cell viability (%)” value was 66.51%.

With `CN1CC[C@H](c2c(O)cc(O)c3c(=O)cc(-c4ccccc4Cl)oc23)[C@H](O)C1` [Flavopiridol (Alvocidib)], the “Relative cell viability (%)” value was 8.879%.

For `C=CC(=O)N1CCC(Oc2cc3c(Nc4ccc(Cl)c(Cl)c4F)ncnc3cc2OC)CC1` [Poziotinib (HM781-36B)], the “Relative cell viability (%)” value worked out at 68.8%.

Regarding `C[C@H]1C[C@@H]2[C@H]([C@@H](O)C[C@@]3(C)[C@H]2CC[C@]3(O)C(=O)CO)[C@@]2(C)C=CC(=O)C=C12` [Methylprednisolone], the “Relative cell viability (%)” value is 42.37%.

Consider `NS(=O)(=O)NCCNc1nonc1C(=NO)Nc1ccc(F)c(Br)c1` [Epacadostat (INCB024360)], for which the “Relative cell viability (%)” value is recorded as 100.9%.

`CCN(c1cc(-c2ccc(CN3CCOCC3)cc2)cc(C(=O)NCc2c(C)cc(C)[nH]c2=O)c1C)C1CCOCC1` [EPZ-6438]: the “Relative cell viability (%)” value amounted to 121.4%.

Take `CC1=C(CC(=O)O)c2cc(F)ccc2/C1=C\c1ccc([S+](C)[O-])cc1` (centres unmarked) [Sulindac]: the “Relative cell viability (%)” value is 216.9%.

Consider `CN(C)C(=O)COC(=O)Cc1ccc(OC(=O)c2ccc(NC(=N)N)cc2)cc1` [Camostat Mesilate], for which the “Relative cell viability (%)” value is 140.8%.

Turning to `CC(=O)c1cc2c(o1)C(=O)c1ccccc1C2=O` [Napabucasin], the “Relative cell viability (%)” value came out at 0%.

Regarding `CC[C@H](Nc1ncnc2[nH]cnc12)c1nc2cccc(F)c2c(=O)n1-c1ccccc1` [CAL-101 (Idelalisib, GS-1101)], the “Relative cell viability (%)” value is 112.6%.

Consider `CC(C)C(=O)Oc1ccc(CO)cc1[C@H](CCN(C(C)C)C(C)C)c1ccccc1` [Fesoterodine Fumarate], for which the “Relative cell viability (%)” value is recorded as 112.6%.

For the compound `CCCCCCCN(CC)CCCC(O)c1ccc(NS(C)(=O)=O)cc1` (centres unmarked) [Ibutilide Fumarate], the “Relative cell viability (%)” value came to 112%.

On to `CC(=O)[C@H]1CC[C@H]2[C@@H]3CC=C4C[C@@H](O)CC[C@]4(C)[C@H]3CC[C@]12C` [Pregnenolone], for which the “Relative cell viability (%)” value turned out to be 94.21%.

Regarding `NC(=O)N1CCC(CC(=O)N2CCC([C@H]3c4ncc(Br)cc4CCc4cc(Cl)cc(Br)c43)CC2)CC1` [Lonafarnib], the “Relative cell viability (%)” value came out at 95.63%.

For the compound `COC(=O)C1=CCCN(C)C1` [Arecoline], the “Relative cell viability (%)” value was determined as 59.22%.

As to `COc1ccccc1OCC(O)COC(N)=O` (centres unmarked) [Methocarbamol], the “Relative cell viability (%)” value was determined as 46.19%.

For the compound `CN(C)C(=O)c1cc2cnc(Nc3ccc(N4CCNCC4)cn3)nc2n1C1CCCC1` [LEE011], the “Relative cell viability (%)” value was 66.24%.

Regarding `Sc1ncnc2nc[nH]c12` [Mercaptopurine (6-MP)], the “Relative cell viability (%)” value was found to be 52.49%.

With `CNC(=O)c1cc(Oc2ccc(NC(=O)Nc3ccc(Cl)c(C(F)(F)F)c3)cc2)ccn1` [Sorafenib], the “Relative cell viability (%)” value worked out at 21.37%.

In the case of `CNC(=O)c1ccc(N2C(=S)N(c3ccc(C#N)c(C(F)(F)F)c3)C(=O)C2(C)C)cc1F` [Enzalutamide (MDV3100)], the “Relative cell viability (%)” value stood at 86.76%.

Take `CN(C)[C@@H]1C(O)=C(C(N)=O)C(=O)[C@@]2(O)C(O)=C3C(=O)c4c(O)cccc4[C@@](C)(O)[C@H]3[C@H](O)[C@@H]12` [Oxytetracycline Dihydrate]: the “Relative cell viability (%)” value came out at 170.4%.

In the case of `Cc1cc(/C=C/C#N)cc(C)c1Nc1ccnc(Nc2ccc(C#N)cc2)n1` [Rilpivirine], the “Relative cell viability (%)” value came out at 58.55%.

Regarding `CN1C2=CC(=O)/C(=N\NC(N)=O)C=C2CC1S(=O)(=O)O` (centres unmarked) [Carbazochrome sodium sulfonate (AC-17)], the “Relative cell viability (%)” value is listed as 50.49%.

Take `C=C(c1ccc(C(=O)O)cc1)c1cc2c(cc1C)C(C)(C)CCC2(C)C` [Bexarotene]: the “Relative cell viability (%)” value came to 134.4%.

As for `NC(=O)OCC(COC(N)=O)c1ccccc1` [Felbamate], the “Relative cell viability (%)” value came out at 69.63%.

The same data set, now with this note: ht29 cells, 72 h, 10 µM.
In the case of `O=C(Nc1nc2cccc(-c3ccc(CN4CCS(=O)(=O)CC4)cc3)n2n1)C1CC1` [Filgotinib (GLPG0634)], the “Relative cell viability (%)” value was determined as 50.85%.
